Reference: ChEMBL document CHEMBL5576125, “Discovery of Pyrazolopyrazines as Selective, Potent, and Mutant-Active MET Inhibitors with Intracranial Efficacy” (J Med Chem, 2024)
pIC50: −log10 of the molar value.

What was measured:
[1] = biological target: Hepatocyte growth factor receptor (Homo sapiens, UniProt P08581, F1200I); assay: Displacement of tracer 236 from N-terminal GST-tagged recombinant human MET F1200I mutant (956 to end residues) expressed in Sf9 insect cells incubated for 1 hr by TR-FRET assay
[2] = biological target: T1, Hepatocyte growth factor receptor (Homo sapiens, UniProt P08581, D1228N); assay: Inhibition of MET D1228N mutant (unknown origin) transfected in mouse NIH3T3 cells incubated for 1 hr by In-Cell Western assay; format: cell-based
[3] = biological target: Hepatocyte growth factor receptor (Homo sapiens, UniProt P08581, Y1230H); assay: Displacement of tracer 236 from N-terminal GST-tagged recombinant human MET Y1230H mutant (956 to end residues) expressed in Sf9 insect cells incubated for 1 hr by TR-FRET assay
[4] = biological target: T1, Hepatocyte growth factor receptor; assay: Displacement of tracer 236 from N-terminal GST-tagged recombinant human MET D1228N mutant (956 to end residues) expressed in Sf9 insect cells incubated for 1 hr by TR-FRET assay
[5] = Displacement of tracer 236 from N-terminal GST-tagged recombinant human MET exon 14 deletion mutant (956 to end residues) expressed in Sf9 insect cells incubated for 1 hr by TR-FRET assay
[6] = Displacement of tracer 236 from N-terminal GST-tagged recombinant human MET […] mutant (956 to end residues) expressed in Sf9 insect cells incubated for 1 hr by TR-FRET assay
[7] = Metabolic stability in human hepatocytes assessed as clearance at 2 uM measured upto 120 mins by LC-MS/MS analysis; format: ADME, cell-based, Hepatocyte
[8] = Efflux ratio of apparent permeability across basolateral to apical over apical to basolateral side in MDCKII-MDR1 cells at 1 uM incubated for 2 hrs in orbital shaker by LC-MS/MS analysis; format: ADME, cell-based, Canis lupus familiaris; conditions: dog, MDCK-MDR1
[9] = Apparent permeability across apical to basolateral side in MDCKII-MDR1 cells at 1 uM incubated for 2 hrs in orbital shaker by LC-MS/MS analysis; format: ADME, cell-based, Canis lupus familiaris; conditions: dog, MDCK-MDR1
[10] = Metabolic stability in mouse hepatocytes assessed as clearance at 2 uM measured upto 120 mins by LC-MS/MS analysis; format: ADME, cell-based, Hepatocyte

Hepatocyte growth factor receptor (Homo sapiens, UniProt P08581, Y1230H), sequence (P08581 25-1390 Y1230H limits assumed): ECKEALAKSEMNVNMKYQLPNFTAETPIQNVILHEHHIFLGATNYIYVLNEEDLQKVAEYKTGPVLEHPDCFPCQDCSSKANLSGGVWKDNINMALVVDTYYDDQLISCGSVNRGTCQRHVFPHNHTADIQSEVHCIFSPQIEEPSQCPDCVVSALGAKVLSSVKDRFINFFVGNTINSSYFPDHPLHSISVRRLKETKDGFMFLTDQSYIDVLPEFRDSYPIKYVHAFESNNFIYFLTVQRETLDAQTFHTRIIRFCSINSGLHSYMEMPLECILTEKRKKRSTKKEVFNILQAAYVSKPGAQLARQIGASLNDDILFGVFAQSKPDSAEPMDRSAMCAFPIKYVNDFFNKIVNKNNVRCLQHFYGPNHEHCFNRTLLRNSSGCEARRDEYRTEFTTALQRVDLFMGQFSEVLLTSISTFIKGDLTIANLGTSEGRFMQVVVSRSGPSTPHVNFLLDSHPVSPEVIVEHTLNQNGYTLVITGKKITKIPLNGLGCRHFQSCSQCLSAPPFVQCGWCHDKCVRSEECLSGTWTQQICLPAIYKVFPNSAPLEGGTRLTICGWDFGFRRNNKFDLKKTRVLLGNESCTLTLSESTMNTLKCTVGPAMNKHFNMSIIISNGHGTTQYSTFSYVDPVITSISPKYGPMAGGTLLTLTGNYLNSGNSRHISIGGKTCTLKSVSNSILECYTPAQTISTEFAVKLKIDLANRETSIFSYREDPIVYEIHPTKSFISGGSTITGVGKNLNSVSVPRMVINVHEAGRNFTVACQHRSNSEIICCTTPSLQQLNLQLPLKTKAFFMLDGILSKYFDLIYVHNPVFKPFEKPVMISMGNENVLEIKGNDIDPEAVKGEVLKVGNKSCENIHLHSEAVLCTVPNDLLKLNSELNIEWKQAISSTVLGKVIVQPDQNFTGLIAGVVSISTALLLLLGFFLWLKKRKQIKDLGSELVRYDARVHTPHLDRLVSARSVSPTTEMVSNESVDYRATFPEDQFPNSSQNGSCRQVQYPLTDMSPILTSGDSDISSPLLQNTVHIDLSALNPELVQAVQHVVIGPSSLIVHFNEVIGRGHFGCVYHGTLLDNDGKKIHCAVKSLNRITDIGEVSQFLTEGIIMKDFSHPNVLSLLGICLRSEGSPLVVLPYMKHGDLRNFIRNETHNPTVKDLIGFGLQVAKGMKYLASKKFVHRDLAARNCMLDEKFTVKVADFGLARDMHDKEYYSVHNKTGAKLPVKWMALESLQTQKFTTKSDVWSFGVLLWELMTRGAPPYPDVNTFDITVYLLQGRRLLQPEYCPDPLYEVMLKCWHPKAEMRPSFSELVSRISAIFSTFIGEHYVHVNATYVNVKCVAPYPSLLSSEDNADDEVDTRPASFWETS
T1 sequence (P08581 25-1390 D1228N limits assumed): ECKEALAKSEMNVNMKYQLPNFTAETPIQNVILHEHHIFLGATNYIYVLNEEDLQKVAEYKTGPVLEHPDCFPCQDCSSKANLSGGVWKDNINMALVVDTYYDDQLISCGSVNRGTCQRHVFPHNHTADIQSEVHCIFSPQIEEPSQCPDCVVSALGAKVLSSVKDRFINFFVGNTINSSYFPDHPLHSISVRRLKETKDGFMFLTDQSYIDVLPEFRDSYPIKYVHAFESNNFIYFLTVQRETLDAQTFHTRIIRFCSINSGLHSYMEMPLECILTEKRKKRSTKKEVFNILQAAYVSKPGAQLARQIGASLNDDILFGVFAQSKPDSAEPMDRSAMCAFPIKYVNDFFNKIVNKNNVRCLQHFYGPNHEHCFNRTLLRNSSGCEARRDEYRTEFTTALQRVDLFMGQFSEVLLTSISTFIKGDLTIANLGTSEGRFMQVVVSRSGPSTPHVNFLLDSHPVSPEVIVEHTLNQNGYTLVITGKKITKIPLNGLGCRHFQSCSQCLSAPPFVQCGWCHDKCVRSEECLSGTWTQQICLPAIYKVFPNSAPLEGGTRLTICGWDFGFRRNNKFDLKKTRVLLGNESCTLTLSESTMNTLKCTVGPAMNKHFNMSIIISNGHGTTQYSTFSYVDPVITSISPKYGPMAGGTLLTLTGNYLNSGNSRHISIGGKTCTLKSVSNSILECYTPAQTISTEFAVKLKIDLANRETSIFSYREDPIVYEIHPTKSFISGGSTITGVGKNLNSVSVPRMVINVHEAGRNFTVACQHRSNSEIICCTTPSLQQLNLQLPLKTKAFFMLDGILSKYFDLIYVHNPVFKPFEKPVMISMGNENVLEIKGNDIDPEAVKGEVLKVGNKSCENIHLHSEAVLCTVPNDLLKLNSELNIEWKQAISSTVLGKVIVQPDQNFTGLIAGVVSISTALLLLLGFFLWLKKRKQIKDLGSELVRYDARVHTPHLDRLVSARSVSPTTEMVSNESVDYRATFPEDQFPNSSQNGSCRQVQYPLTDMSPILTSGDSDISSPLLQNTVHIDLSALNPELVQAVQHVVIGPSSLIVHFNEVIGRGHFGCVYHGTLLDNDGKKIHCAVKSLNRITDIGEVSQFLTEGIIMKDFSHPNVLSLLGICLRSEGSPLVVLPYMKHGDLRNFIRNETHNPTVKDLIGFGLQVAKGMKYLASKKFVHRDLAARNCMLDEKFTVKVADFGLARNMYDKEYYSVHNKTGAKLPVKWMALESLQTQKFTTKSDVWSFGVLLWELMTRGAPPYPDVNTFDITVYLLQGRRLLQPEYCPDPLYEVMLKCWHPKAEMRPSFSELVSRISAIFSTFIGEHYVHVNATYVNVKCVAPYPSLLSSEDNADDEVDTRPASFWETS

Row | Structure (SMILES) | pIC50 [1] | pIC50 [2] | pIC50 [3] | pIC50 [4] | pIC50 [5] | pIC50 [6] | CLhep predicted at 2 µM [7] [mL/min/kg] | efflux ratio at 2 h, 1 µM [8] | Papp A→B at 2 h, 1 µM [9] [×10⁻⁶ cm/s] | CLhep predicted at 2 µM [10] [mL/min/kg]
1 | CO[C@H]1C[C@@H](N(c2cc(F)c(NC(=O)c3ccnn(-c4ccc(F)cn4)c3=O)cc2F)c2cccn3nccc23)C1 | 6.77 | 7.41 | 8.22 | 8.15 | 8.40 | 7.34 | – | – | – | –
2 | Cc1cc(N(c2nccn3nccc23)[C@H]2C[C@H](c3ccn(C)n3)C2)c(F)cc1NC(=O)c1ccnn(-c2ccc(F)cn2)c1=O | 6.66 | 7.39 | 8.30 | 8.00 | – | 7.19 | 22 | 0.9 | 4 | 17
3 | Cn1ccc(CCN(c2cc(F)c(NC(=O)c3ccnn(-c4ccc(F)cn4)c3=O)cc2F)c2cccn3nccc23)n1 | 7.24 | 7.60 | 8.70 | 8.40 | – | 7.72 | – | – | – | –
4 | CC(C)(C#N)CN(c1cc(F)c(NC(=O)c2ccnn(-c3ccc(F)cn3)c2=O)cc1F)c1cccn2nccc12 | 7.02 | 7.24 | 8.70 | 8.30 | 8.52 | 7.41 | – | – | – | –
5 | Cn1ccc([C@H]2C[C@H](N(c3cc(F)c(NC(=O)c4ccnn(-c5ccc(F)cn5)c4=O)cc3F)c3cccn4nccc34)C2)n1 | 7.44 | 7.70 | 8.40 | 8.30 | – | 7.92 | 21 | – | 5 | 77
6 | Cn1ccc([C@H]2C[C@H](N(c3cc(C(F)F)c(NC(=O)c4ccnn(-c5ccc(F)cn5)c4=O)cc3F)c3nccn4nccc34)C2)n1 | 5.48 | 6.28 | 7.49 | 7.10 | 7.89 | 6.03 | – | – | – | –
7 | Cn1ccc([C@H]2C[C@H](N(c3cc(F)c(NC(=O)c4ccnn(-c5ccc(F)cn5)c4=O)cc3F)c3cc(F)cn4nccc34)C2)n1 | 6.56 | 7.43 | 7.96 | 7.48 | 7.89 | 7.39 | 3 | – | 2 | 15
8 | O=C(Nc1cc(F)c(Oc2cccn3nccc23)cc1F)c1ccnn(-c2ccc(F)cc2)c1=O | 5.30 | 5.78 | 7.08 | 6.78 | 7.57 | 6.14 | – | – | – | –
9 | CC(C)N(c1cc(F)c(NC(=O)c2ccnn(-c3ccc(F)cc3)c2=O)cc1F)c1cccn2nccc12 | 6.12 | 6.47 | 7.04 | 7.07 | 7.15 | 6.53 | – | – | – | –
